# No end group written: not given here.
# Key:
# [1] = tested on: RPtag (large); experiment: Association/dissociation kinetics of RPtag (small) peptides with RPtag (large) by fluorescence anisotropy; format: binding, Thermoanaerobacter tengcongensis; conditions: for koff: LS dissociation, unlabeled competitor peptide
# How it was run: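 Rhodamine-labeled RPtag small incubated with unlabeled RPtag large; binding followed by fluorescence anisotropy and converted to complex concentration. For dissociation, 1000 nM RPtag large complex chased with 0.1 mM unlabeled native or Nd2,P5A,E18A peptide; koff from initial rates or single-exponential fits, kon derived from koff and Kd.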
# [2] = tested on: RPtag large with rhodamine labeled PDGF-β n-terminal peptide; experiment: Competition of RPtag large / PDGF-β n-terminal peptide binding by unlabeled peptide; conditions: 1 uM RPtag large, 1 uM labeled PDGF-β peptide, unlabeled competitor
# Procedure: An initial Kd was measured between RPtag(large) and the PDGF-β N-terminal peptide (FIG. 16). […] Next, competition experiments were performed using the mutant RPtag(small) peptide Nd2,P5A,E18A.
# The direct binding (left) and competition studies (right) presented in FIG. 16 were performed as follows. The indicated concentration of RPtag large was incubated with 20 nM rhodamine labeled PDGF-β n-terminal peptide for 1 h at room temperature, and the fluorescence anisotropy was measured. The curves were fit with the equation f=y0+(ymax−y0)*(Ptot+x+Kd−sqrt((Ptot+x+Kd)^2−4*Ptot*x))/(2*Ptot), where y0 is the baseline anisotropy, ymax is the maximum anisotropy, Ptot is the fixed concentration of labeled peptide used, x is the variable concentration of protein used, and Kd is the measured Kd. […] The curves were fit empirically to a 4 parameter logistic regression. In both cases, the buffer was 50 mM Tris pH 8.0, 0.005% Tween20. Curves were fit in […] each, and the data was averaged for display. Points are mean±SEM (n=3).
# [3] = tested on: RPtag (large) resin; experiment: Affinity-based precipitation/pull-down with RPtag (large) resin; format: binding, Thermoanaerobacter tengcongensis; conditions: 7 sequential pulldowns, 6 M guanidine hydrochloride washes
# Procedure: The disclosed proteins and peptides were used in precipitation/pull-down assays. Specifically, rhodamine was tagged with the RPtag(small) Nd8Cd4 peptide and RPtag(large) was immobilized on a resin, as described above.
# Briefly, 100 μL 1000 nM rhodamine labeled RPtag(small) peptide was incubated with 2.5 uL wet settled RPtag (large) resin generated as (as described above) in phosphate buffered saline (PBS; Gibco)+1% BSA+0.005% Tween 20 at 4° C. for 60 min with continuous orbital shaking. Samples were then washed 3× with 500 μL of the same buffer with no peptide to remove unbound peptide. Bound RPtag(small) peptides were then eluted with 100 μL 100 mM glycine pH 1.5+0.005% Tween20, and the pH raised by adding 1 μL 1 M borate pH 10.0. The amount eluted was calculated from the blank subtracted fluorescence of the elution versus the load. After each elution, resin was washed once with 500 μL 6M GdnHCl and once with 500 μL phosphate buffered saline (Gibco)+1% BSA+0.005% Tween 20, before repeating the assay.
# Sequential precipitation/pulldown trials were performed with the rhodamine labelled RPtag(small) Nd8Cd4 peptide, and the RPtag(large)-resin. After binding and pull-down, the rhodamine-peptide was eluted in 100 mM glycine pH 1.5, the column was washed with water and 6 M guanidine hydrochloride, and then re-equilibrated with buffer (50 mM Tris pH 8.0, 10 mM EDTA). […]
Sequence,koff [1],kf ([1]; S to S* forward rate constant),"kr ([1]; S* to S reverse rate constant, calculated from Keq and kf)","kon (M^−1 min^−1 ) (×10^7) ([1]; S*-LS transition, calculated from measured koff and Kd)",disruption of RPtag(large) binding to PDGF-β N-terminal peptide [2],binding/unbinding kinetics ([1]; instrument dead time ~1 min),binding capacity over sequential pulldowns [3]
"KIANFIPAELKLITKANVQ [Nd2, p5a, e18a, KIANFIPAELKLITKANVQ]",0.013 ± 0.001 min⁻¹,0.051 ± 0.001 min⁻¹,0.19 ± 0.02 min⁻¹,28 ± 2 ×10^7 M^−1 min^−1,could be disrupted,–,–
"PAELKLITK [Nd8, Cd4, PAELKLITK]",>2 min⁻¹,–,–,–,–,completed within the dead time,little to no loss of binding capacity
